Like-named read-outs stand apart in the source and are kept apart here.
Tests used:
[1] = system: Cathepsin; assay: Cathepsin cleavage of GP
[2] = system: EBOV; assay: microbe, parasite or virus in culture; format: cell-based, Zaire Ebolavirus (Mayinga strain)
[3] = system: Shiga toxins A and B; conditions: cited from earlier work
[4] = biological target: T1, MDM4/1 (Homo sapiens, UniProt O15151); conditions: MLSMR screening network data; cited from earlier work
T1 sequence (O15151 1-490): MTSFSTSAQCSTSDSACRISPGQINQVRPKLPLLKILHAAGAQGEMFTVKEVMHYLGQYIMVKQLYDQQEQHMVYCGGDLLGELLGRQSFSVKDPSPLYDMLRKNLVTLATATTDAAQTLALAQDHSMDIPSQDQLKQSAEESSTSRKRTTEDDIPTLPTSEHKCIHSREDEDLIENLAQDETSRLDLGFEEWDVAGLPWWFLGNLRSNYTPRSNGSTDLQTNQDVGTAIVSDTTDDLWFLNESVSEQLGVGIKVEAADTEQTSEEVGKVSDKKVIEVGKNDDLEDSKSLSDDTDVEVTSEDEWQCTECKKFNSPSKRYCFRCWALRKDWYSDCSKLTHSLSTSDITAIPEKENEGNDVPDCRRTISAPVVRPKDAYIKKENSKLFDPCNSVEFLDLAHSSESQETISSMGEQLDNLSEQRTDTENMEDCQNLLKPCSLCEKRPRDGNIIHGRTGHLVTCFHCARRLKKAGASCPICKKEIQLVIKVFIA

[5] = biological target: T2, NPC1 C-loop (Homo sapiens, UniProt O15118); assay: NPC1 C-loop binding
T2 construct: C-loop
T2 sequence (O15118 372-620 limits assumed): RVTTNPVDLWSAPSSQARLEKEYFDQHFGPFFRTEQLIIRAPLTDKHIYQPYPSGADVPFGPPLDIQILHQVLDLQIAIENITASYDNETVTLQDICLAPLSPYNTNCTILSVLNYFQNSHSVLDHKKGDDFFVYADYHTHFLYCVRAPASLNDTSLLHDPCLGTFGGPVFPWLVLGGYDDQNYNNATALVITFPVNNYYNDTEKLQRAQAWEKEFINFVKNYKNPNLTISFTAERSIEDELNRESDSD

[6] = system: Synuclein; conditions: PubChem data; cited from earlier work
[7] = biological target: MDM2/A (Homo sapiens, UniProt Q00987); conditions: MLSMR screening network data; cited from earlier work
Sequence of MDM2/A (Q00987 whole entry, species assumed): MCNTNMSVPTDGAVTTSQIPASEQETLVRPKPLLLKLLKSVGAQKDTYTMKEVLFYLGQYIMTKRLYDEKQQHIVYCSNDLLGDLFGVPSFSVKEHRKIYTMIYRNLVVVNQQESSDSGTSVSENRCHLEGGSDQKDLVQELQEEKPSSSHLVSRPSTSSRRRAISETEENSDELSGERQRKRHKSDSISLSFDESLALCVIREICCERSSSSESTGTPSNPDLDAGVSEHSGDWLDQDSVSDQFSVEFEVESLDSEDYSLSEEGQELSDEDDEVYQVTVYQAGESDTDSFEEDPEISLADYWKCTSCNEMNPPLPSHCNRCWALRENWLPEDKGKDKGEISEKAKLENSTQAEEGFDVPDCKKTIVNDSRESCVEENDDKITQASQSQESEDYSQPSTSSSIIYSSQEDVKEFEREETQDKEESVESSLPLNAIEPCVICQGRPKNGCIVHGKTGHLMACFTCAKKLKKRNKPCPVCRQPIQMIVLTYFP

[8] = system: Baby hamster kidney fibroblasts (BHK) cells; assay: Acridine orange assay for acidification blockers; format: cell-based
[9] = system: MARV; assay: microbe, parasite or virus in culture; format: cell-based, Marburgvirus (Musoke strain)
[10] = system: IL-1-Beta; conditions: PubChem / MLSMR data; cited from earlier work
[11] = system: HeLa cells; conditions: human
[12] = system: HeLa cells; format: cell-based, human; conditions: for Transferrin uptake: 50 μM
[13] = system: EBOV; assay: organism not typed; format: cell-based, Zaire Ebolavirus (Mayinga strain)
[14] = system: HeLa cells; format: cell-based, human; conditions: for Dextran Uptake: 50 μM
[15] = system: Janus kinase 2; conditions: PubChem data; cited from earlier work
[16] = system: EBOV; format: cell-based, Zaire Ebolavirus (Mayinga strain)
[17] = biological target: TDP1 (Homo sapiens, UniProt Q9NUW8); conditions: PubChem data; cited from earlier work
Sequence of TDP1 (Q9NUW8 whole entry, species assumed): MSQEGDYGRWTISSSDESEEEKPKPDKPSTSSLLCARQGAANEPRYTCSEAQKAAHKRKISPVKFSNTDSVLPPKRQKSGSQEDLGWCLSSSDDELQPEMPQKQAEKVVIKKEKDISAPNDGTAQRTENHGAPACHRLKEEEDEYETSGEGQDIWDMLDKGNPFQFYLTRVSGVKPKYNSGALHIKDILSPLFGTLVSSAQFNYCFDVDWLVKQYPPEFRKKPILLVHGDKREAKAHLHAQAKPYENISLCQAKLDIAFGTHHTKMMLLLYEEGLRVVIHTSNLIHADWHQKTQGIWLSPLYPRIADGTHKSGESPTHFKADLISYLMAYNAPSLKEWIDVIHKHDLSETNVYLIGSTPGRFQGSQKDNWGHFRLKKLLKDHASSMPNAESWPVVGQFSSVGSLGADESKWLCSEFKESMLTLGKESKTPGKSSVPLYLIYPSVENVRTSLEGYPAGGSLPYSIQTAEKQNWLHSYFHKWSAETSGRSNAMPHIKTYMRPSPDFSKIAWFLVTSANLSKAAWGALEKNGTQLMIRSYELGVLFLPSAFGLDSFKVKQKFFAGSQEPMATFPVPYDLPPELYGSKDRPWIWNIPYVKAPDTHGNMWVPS

[18] = system: EEA1-positive vesicles; format: cell-based, human
[19] = biological target: T3, acetylcholine receptor M1 (Homo sapiens, UniProt P11229); conditions: PubChem data; cited from earlier work
T3 sequence (P11229 1-460): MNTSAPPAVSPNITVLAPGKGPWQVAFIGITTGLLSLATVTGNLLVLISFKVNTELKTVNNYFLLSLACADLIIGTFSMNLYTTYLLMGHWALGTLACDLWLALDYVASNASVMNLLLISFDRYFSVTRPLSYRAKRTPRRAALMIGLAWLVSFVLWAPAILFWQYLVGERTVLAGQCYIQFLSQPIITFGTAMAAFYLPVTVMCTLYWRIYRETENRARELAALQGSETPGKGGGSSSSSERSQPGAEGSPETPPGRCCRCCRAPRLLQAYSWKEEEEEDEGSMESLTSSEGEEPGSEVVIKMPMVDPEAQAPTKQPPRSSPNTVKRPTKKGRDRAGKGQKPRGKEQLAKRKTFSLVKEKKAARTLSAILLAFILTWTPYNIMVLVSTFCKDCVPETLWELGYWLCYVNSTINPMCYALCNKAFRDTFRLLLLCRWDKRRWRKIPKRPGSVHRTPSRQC

[20] = system: LAMP1-positive vesicles; format: cell-based, human

O=[N+]([O-])c1cc(S(=O)(=O)NCCN2CCOCC2)ccc1Sc1nnnn1-c1ccccc1 [MLS000394177, N-(2-morpholin-4-ylethyl)-3-nitro-4-(1-phenyltetrazol-5-yl)sulfanylbenzenesulfonamide]
Cathepsin clevage [1]: 0
IC50 ([2]; Zaire ebolavirus, Macrophage, read-out: Activity in macrophages IC50 (μM)): 8.6 µM
Shiga toxins A and B [3]: active
inhibition of MDM4/1 [4]: identified as inhibitors
NPC1 C-loop binding [5]: 0
Synuclein activity [6]: active
inhibition of MDM2/A [7]: identified as inhibitors
Acidification Block [8]: +
effect on endosomal acidification [8]: affected endosomal acidification
Curve class (MARV) [9]: 1.3
MARV (Curve class) [9]: 1.3
IC50 ([9]; Orthomarburgvirus, HeLa, read-out: IC-50 (MARV)): 12.9 µM
IC50 ([9]; Orthomarburgvirus, HeLa, read-out: MARV HeLa IC50 (μM)): 12.9 µM
secretion of IL-1-Beta [10]: inhibit secretion of IL-1-Beta
toxic concentration (not toxic up to / toxic at) [11]: > 100 µM
effect on transferrin uptake [12]: no effect on transferrin uptake
Transferrin uptake [12]: 0
Curve Class (EBOV) [13]: 1.6
EBOV (curve class) [13]: 1.6
potency for Ebolavirus inhibition, times better than EIPA [13]: 25 times
EC50 ([13]; HeLa, read-out: EC50 for Ebolavirus inhibition): 1.9 µM
IC50 ([13]; Zaire ebolavirus, HeLa, read-out: EBOV HeLa IC50 (μM)): 1.9 µM
IC50 ([13]; Zaire ebolavirus, HeLa, read-out: IC-50 (EBOV)): 1.89 µM
reduction of uptake of fluorescently labeled dextran [14]: approximately 91%
Dextran Uptake [14]: −
inhibition of Janus kinase 2 (JNK2) [15]: active
Surface interaction [16]: +
Uninfected cell number [16]: 0
enhancement of virus interaction with cells [16]: 44%
reduction of number of viral particles inside the cell body [16]: 62%

CC(C)N1CCN(C(=O)c2ccc(OC3CCN(CCc4ccccc4)CC3)cc2)CC1 [MLS001101371]
Cathepsin clevage [1]: 0
IC50 ([2]; read-out: Activity in macrophages IC50): 24.6 µM
antagonist of DNA repair gene TDP1 [17]: identified
Effect on EEA1 [18]: 0
VLP colocalization with EEA1 [18]: colocalized with EEA1 positive vesicles normally
NPC1 C-loop binding [5]: 0
antagonist of acetylcholine receptor M1 [19]: identified
Acidification Block [8]: +
Curve class (MARV) [9]: 1.3
MARV (Curve class) [9]: 1.3
IC50 ([9]; read-out: IC-50 (MARV)): 13 µM
IC50 ([9]; read-out: MARV HeLa IC50): 13 µM
Effect on LAMP1 [20]: −
reduction of number of VLPs present in LAMP1-positive vesicles [20]: 41%
effect on transferrin uptake [12]: do not inhibit transferrin uptake
Transferrin uptake [12]: 0
Curve Class (EBOV) [13]: 1.3
EBOV (curve class) [13]: 1.3
IC50 ([13]; read-out: EBOV HeLa IC50): 12.9 µM
IC50 ([13]; read-out: IC-50 (EBOV)): 12.9 µM
Dextran Uptake [14]: 0
Surface interaction [16]: 0
Uninfected cell number [16]: 0

From patent US10111881B2 (priority 2016, dated 2018)
